This note sets out measurements from article PMC11742723, “The clinical-stage drug BTZ-043 accumulates in murine tuberculosis lesions and efficiently acts against Mycobacterium tuberculosis” (Nature Communications, 2025).

The assay has as its system Mtb. In kind it is cell-based, Mycobacterium tuberculosis.

`C[C@H]1COC2(CCN(c3nc(=O)c4cc(C(F)(F)F)cc([N+](=O)[O-])c4s3)CC2)O1` [BTZ-043]: the “effect on mycobacterial growth on agar containing BTZ-043” value (1 ng/mL BTZ-043, bacteria from BTZ-043 treated BALB/c mice, untreated mice and H37Rv) is on record as “did not restrict mycobacterial viability”. For the same compound, the “growth of Mtb from drug treated IL-13tg mice on agar containing BTZ-043” value (5 or 10 ng/mL BTZ-043, IL-13tg mice 250 mg/kg/day 10 days) was “did not grow”. Besides, the “mycobacterial growth on agar containing BTZ-043” value (5 or 10 ng/mL BTZ-043, bacteria from BTZ-043 treated BALB/c mice, untreated mice and H37Rv) was “No growth”.
